Data from patent US5840696A (priority 1997, dated 1998).

Tests used:
[1] = tested on: conscious Sprague-Dawley rats; experiment: intravenous infusion of nociceptin in conscious chronically instrumented rats: cardiovascular and renal responses; format: in vivo, rat; conditions: i.v. infusion 20 μg/kg/min
Description: (§1) Anesthetized male Sprague-Dawley rats (275-300 g, Sprague-Dawley, Inc., Indianapolis, Ind.) were implanted with chronic arterial and venous cannulas and a bladder catheter in accordance with previously published methods (10, 12). For experiments in which drugs were administered i.c.v., a stainless steel cannula was stereotaxically implanted into the right lateral ventricle of rats under anesthesia at least 5-7 days prior to experimentation (11). On the morning of the study rats were placed in a rat holder which permits forward and backward movement and allows for collection of urine from the bladder catheter. Conscious rats were then infused i.v. with isotonic saline (50 μl/min) for the duration of the experiment. The arterial cannulae was then flushed and attached to a pressure transducer (Statham P23Db) and the urinary bladder catheter led to a collection beaker. After equilibration and stabilization of urine flow rate and urinary sodium excretion (approximately 2-3 hours) the experimental protocol described in each figure legend commenced. Intravenous and i.c.v. stock solutions of nociceptin and nor-binaltorphimine were prepared fresh in isotonic saline vehicle. […] Animal experimentation and care procedures were in accordance with the National Institutes of Health guidelines for the care and use of animals.
Statistical significance was determined by a repeated measure analysis of variance followed by a Bonferroni multiple comparisons test; asterisks denote a significant difference (p<0.05) from the respective group control.

[2] = tested on: conscious Sprague-Dawley rats; experiment: intracerebroventricular (i.c.v.) injection in conscious rats: cardiovascular and renal responses; format: in vivo, rat
Description: (§2) Abbreviations are HR, heart rate; MAP, mean arterial pressure; V, urine flow rate; and UNa V, urinary sodium excretion. Statistical significance within each group was determined by a repeated measures analysis of variance followed by a Bonferroni multiple comparisons test; asterisks (a, b, or c) denote a significant change (p<0.05) from control within each group.
as §1

[3] = tested on: conscious Sprague-Dawley rats; experiment: i.v. bolus administration of 30 μg nociceptin in conscious rats; format: in vivo, rat; conditions: i.v. bolus 30 μg
Description: as §2
Anesthetized male Sprague-Dawley rats (275-300 g, Sprague-Dawley, Inc., Indianapolis, Ind.) were implanted with chronic arterial and venous cannulas and a bladder catheter in accordance with previously published methods (10, 12). For experiments in which drugs were administered i.c.v., a stainless steel cannula was stereotaxically implanted into the right lateral ventricle of rats under anesthesia at least 5-7 days prior to experimentation (11). On the morning of the study rats were placed in a rat holder which permits forward and backward movement and allows for collection of urine from the bladder catheter. Conscious rats were then infused i.v. with isotonic saline (50 μl/min) for the duration of the experiment. The arterial cannulae was then flushed and attached to a pressure transducer (Statham P23Db) and the urinary bladder catheter led to a collection beaker. […]

rat kidney = experiment: site of infusion (right renal artery, suprarenal and infrarenal aorta, intravenous) and urine flow rate; format: in vivo; conditions: direct right renal arterial administration
[4] = tested on: isolated rat aortic vascular rings; experiment: vasorelaxant response of isolated rat aortic rings in vitro precontracted with U46619
Description: Aortic rings were precontracted with U46619, a thromboxane A2 mimic.
Rat aortic rings in vitro (with intact endothelium) were precontracted with […], a thromboxane A2 mimic.
Male rats (250-350g) were anesthetized with pentobarbital sodium (30 mg/Kg i.p). The rat lungs were quickly removed and immersed in cold (4° C.) Krebs-Henseleit (K-H) solution (composition mM: NaCl 118, KCl 4.7, CaCl2 2.5, KH2 PO4 1.2, NaHCO3 25, MgSO4 1.2, and dextrose 10). Pulmonary arteries (PA) were isolated and excess fat and connective tissue were removed. Vessels were cut into rings of about 2.5-3 mm in length and were mounted in organ baths containing 5 ml K-H solution. Two stainless steel hooks were inserted into the lumen of the pulmonary artery (PA), one was fixed while the other was connected to a transducer. The tissue bath solution was maintained at 37° C. and bubbled with a 95% O2 -5%CO2 mixture. The pulmonary arteries were equilibrated for 90 min with three changes of K-H solution and an optimal tension of 1 gr. applied. Contractions were measured isometrically with a force displacement transducer (FTO3, Grass, USA) and were recorded on a Grass model 7 polygraph. The contractile ability of each ring was then examined by exposure to 60 mM KCl, then washed and allowed to dilate to baseline tension. […] The integrity of the endothelium was determined by obtaining a maximal vasorelaxant response to ACh. […]

[5] = tested on: isolated feline renal, femoral, mesenteric and carotid arterial rings; experiment: isolated feline arterial rings (with endothelium) precontracted with phenylephrine
Description: Additional studies were performed in vitro to determine the contribution of changes in regional hemodynamics in the systemic vasodilator response to nociceptin.

[6] = tested on: intact-chest, anesthetized rats; experiment: bolus injection into right atrium versus left atrium, systemic arterial pressure (first-pass lung transit); format: in vivo, rat; conditions: inferred from right versus left atrial injection
Source text: Such a hemodynamic profile would be particularly desireable in patients experiencing congestive heart failure since pulmonary vasodilation would be expected to enhance resolution of pulmonary edema and systemic vasodilation (i.e. afterload reduction) would be expected to enhance myocardial performance.

[7] = tested on: systemic vascular bed of the anesthetized rat; conditions: literature (18); cited from earlier work
[8] = tested on: forskolin-stimulated cAMP production; conditions: literature (4,5); cited from earlier work
mice = conditions: administration to mice, literature (4,5); cited from earlier work

In the case of `CC(C)C[C@H](NC(=O)[C@H](CCCCN)NC(=O)[C@H](CCCN=C(N)N)NC(=O)[C@H](C)NC(=O)[C@H](CO)NC(=O)[C@H](CCCCN)NC(=O)[C@H](CCCN=C(N)N)NC(=O)[C@H](C)NC(=O)CNC(=O)[C@@H](NC(=O)[C@H](Cc1ccccc1)NC(=O)CNC(=O)CNC(=O)[C@@H](N)Cc1ccccc1)[C@@H](C)O)C(=O)N[C@@H](C)C(=O)N[C@@H](CC(N)=O)C(=O)N[C@@H](CCC(N)=O)C(=O)O` [nociceptin], the “behavioral or sedative effects” value [1] is reported as “did not produce any behavioral or sedative effects”, the “duration of renal responses” value [1] is reported as “approximately 70 min” and the heart rate [1] is reported as “did not alter heart rate”. For the same compound, the “time of peak changes in renal responses after start of infusion” value [1] was “approximately 40 min”, the urinary sodium excretion ([1]; conscious rats) was “decrease” and the urine flow rate ([1]; conscious rats) was “profound increase”. The mean arterial pressure ([1]; sustained throughout infusion) was “slight, but statistically significant decrease”, the “tachyphylaxis to the cardiovascular and renal responses” value ([2]; consecutive i.c.v. injection of the same dose (1, 10 or 30 μg)) was “did not develop” and the “time of peak diuresis” value ([2]; i.c.v. 1 μg) was 30 min. For the same compound, the “time of peak diuresis” value ([2]; i.c.v. 10 μg) was 40 min, the “renal response (urine flow rate and urinary sodium excretion)” value ([2]; i.c.v. 10 μg, naive conscious rats) was “concurrent diuretic and antinatriuretic response” and the “onset of diuresis compared with dynorphin A” value ([2]; i.c.v. 10 μg, p<0.05 at time 20 min) was “significantly delayed”. For the same compound, the diuretic response ([2]; i.c.v. 1, 10 or 30 μg) was “profound diuretic response”, the “heart rate, mean arterial pressure and urinary sodium excretion” value ([2]; i.c.v. 1, 10 or 30 μg, versus group control) was “significant (p<0.05) decreases” and the duration of bradycardia ([2]; i.c.v., all doses) was “approximately 30 minutes”. The “duration of hypotensive response” value ([2]; i.c.v., all doses) was roughly 40 min, the “onset of bradycardia and hypotensive response” value ([2]; i.c.v., all doses (1, 10, 30 μg)) was 1 to 3 min and the “minimum effective i.c.v. dose to evoke a change in urine flow rate and urinary sodium excretion” value ([2]; i.c.v., preliminary studies) was 1 µg. For the same compound, the “cardiovascular and renal parameters” value [3] was “did not alter any cardiovascular or renal parameter”, the “left or right ureteral flow rate” value (rat kidney) was “did not increase” and the “aortic vasorelaxant response in the presence of inhibitors of nitric oxide formation and function” value ([4]; endothelial cell removal, methylene blue, L-NAME, L-NIO) was “blocked”. For the same compound, the “vasorelaxant response after cycloxygenase blockade” value ([4]; meclofenamate) was “lack of an inhibitory effect”, the “relaxation of arterial rings” value [5] was “ability to relax” and the “first-pass uptake or metabolism in the lung” value [6] was “does not undergo significant first-pass uptake or metabolism”. The “decrease of systemic arterial pressure, sensitivity to naloxone” value [7] was “naloxone-insensitive”, the “forskolin-stimulated cAMP production” value [8] was “inhibits forskolin-stimulated cAMP production” and the “response to painful stimuli” value (mice) was “hypersensitivity to painful stimuli”.
